Experiment [1] has as its target T1, porcine aminopeptidase N (pAPN) (Sus scrofa, UniProt P15145).
T1 construct: Microsomal leucine aminopeptidase (APN, EC 3.4.11.2) from porcine kidney was purchased from Sigma Aldrich; purchased Sigma Aldrich; host or cells: porcine kidney (tissue-derived)
T1 sequence (P15145 1-963): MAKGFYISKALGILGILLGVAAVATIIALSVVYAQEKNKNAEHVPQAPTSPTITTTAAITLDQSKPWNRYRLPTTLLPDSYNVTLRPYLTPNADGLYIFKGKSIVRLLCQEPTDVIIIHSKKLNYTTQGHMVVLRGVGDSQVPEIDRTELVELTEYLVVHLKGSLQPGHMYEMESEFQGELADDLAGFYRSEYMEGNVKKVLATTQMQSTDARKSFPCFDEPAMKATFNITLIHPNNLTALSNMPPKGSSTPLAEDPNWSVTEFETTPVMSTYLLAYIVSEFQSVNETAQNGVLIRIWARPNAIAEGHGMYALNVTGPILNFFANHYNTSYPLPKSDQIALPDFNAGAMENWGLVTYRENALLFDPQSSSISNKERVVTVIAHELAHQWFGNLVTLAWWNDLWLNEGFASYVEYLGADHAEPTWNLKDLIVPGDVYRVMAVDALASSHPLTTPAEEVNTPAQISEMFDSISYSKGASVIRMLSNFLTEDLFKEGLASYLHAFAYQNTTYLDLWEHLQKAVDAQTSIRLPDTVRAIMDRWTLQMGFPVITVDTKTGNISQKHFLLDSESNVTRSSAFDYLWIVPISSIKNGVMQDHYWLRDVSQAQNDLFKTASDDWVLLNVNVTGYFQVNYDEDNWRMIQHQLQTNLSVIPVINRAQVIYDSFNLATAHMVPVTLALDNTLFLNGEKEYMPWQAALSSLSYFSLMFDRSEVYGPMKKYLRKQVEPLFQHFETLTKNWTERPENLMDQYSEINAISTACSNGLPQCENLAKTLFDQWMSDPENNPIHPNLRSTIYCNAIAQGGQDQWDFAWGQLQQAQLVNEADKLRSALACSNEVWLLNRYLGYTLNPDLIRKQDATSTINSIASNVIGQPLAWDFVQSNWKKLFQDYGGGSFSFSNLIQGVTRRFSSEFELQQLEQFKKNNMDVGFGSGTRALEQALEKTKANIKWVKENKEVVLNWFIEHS
As to the kind of experiment: Inhibition of porcine kidney aminopeptidase N (L-Leu-pNa hydrolysis, absorbance at 405 nm). The experiment is classed as biochemical. The settings on record: for Ki / pAPN Ki + SD: racemic compounds, apparent Ki ± SD, 50 mM potassium phosphate pH 7.2, 37 °C, substrate L-Leu-pNa, in = inactive at a concentration of 1 mM; for inhibitory action: pAPN. As to the method:
Microsomal leucine aminopeptidase (APN, EC 3.4.11.2) from porcine kidney was purchased from Sigma Aldrich. It was applied directly in kinetic measurements after dissolving in 50 mM potassium phosphate (pH 7.2). Such a solution should be stored in 4 °C for no longer than 2 days.
(§1) The activity of pAPN (KM = 0.52 mM) was determined as described in the literature. The activity of aminopeptidase from barley seeds was determined at 37 °C in 50 mM Tris-HCl, pH 8.0, containing 50 mM NaCl and 10 mM β-mercaptoethanol using substrate L-leucine-p-nitroanilidine (L-Leu-pNa) dissolved in DMSO. The kinetics parameters of the purified enzyme were measured for L-Leu-pNa at ten final concentrations (ranging from 0.1 to 1.0 mM) and being repeated two times. The KM value of barley seeds aminopeptidase was determined by using the Lineweaver–Burk weighted regression method (see Table S7 and Plot 1 in the Supplementary Information).
The assay mixture of the pAPN, totaling 1.01 mL, contained 50 mM potassium phosphate buffer (pH 7.2), 0.025 mL of the substrate L-Leu-pNa dissolved in DMSO (used in 0.4–0.1 mM range of the final concentration), 0.05 mL of the potential inhibitor in reaction buffer (in a concentration dependent on the potency of the compound), and 0.01 mL of the enzyme solution (4µg/mL final concentration).
(§2) The progress of the enzymatic reaction for both enzymes was measured at 37 °C for 10 min and was monitored spectrophotometrically (UV-VIS Spectrophotometer, JASCO V-730) by following the change in absorbance at 405 nm (formation of p-nitroaniline). The extinction coefficient for pNa was 9620 M^−1cm^−1.
(§3) Inhibition constants were determined considering four substrate concentrations and five concentrations of each inhibitor, with each measurement being repeated at least twice.
(§4) The rate of enzymatic reaction was studied following the reaction progress (changes in absorbance of L-Leu-pNa over time). Kinetics constants, namely Ki and IC50, and the type of the inhibition were determined using Lineweaver–Burk, Dixon, and Hanes–Wolf procedures. For each parameter, relative errors were calculated.

The target in experiment [2] is aminopeptidase from barley seeds. As to the kind of experiment: Inhibition of aminopeptidase from barley seeds (L-Leu-pNa hydrolysis, absorbance at 405 nm). The experiment is classed as biochemical, barley (Hordeum vulgare L.). The settings on record: for Ki / Barley Seed AP Ki + SD: racemic compounds, apparent Ki ± SD, 50 mM Tris-HCl pH 8.0, 37 °C, substrate L-Leu-pNa, in = inactive at a concentration of 1 mM; for Ki: read-out: Barley Seed AP Ki + SD; for inhibitory action: barley enzyme. As to the method:
Aminopeptidase from barley seeds (Hordeum vulgare L.) was isolated and purified based on the procedure described previously. The following steps were used: (i) ammonium sulfate precipitation, (ii) gel chromatography (Sephadex G-25, Sephacryl HR 300), followed by (iii) ion chromatography (DEAE—Sepharose). The molecular mass of the extracted enzyme was ~58 kDa. Because of the low stability of the concentrated enzyme solution, it was prepared directly before each kinetic study.
as §1
The assay mixture of the aminopeptidase from barley seeds, totaling 1.095 mL, contained 50 mM Tris-HCl buffer (pH 8.0) with 50 mM NaCl and 10 mM β-mercaptoethanol, 0.025 mL of the substrate L-Leu-pNa dissolved in DMSO (used in 0.4–0.1 mM range of the final concentration), 0.05 mL of varying concentrations of the potential inhibitor (dependent on the potency of the compound), and 0.02 mL enzyme (0.030 mg of protein).
as §2, §3, §4
The progress of the enzymatic reactions was monitored spectrophotometrically (UV-VIS Spectrophotometer JASCO V-730) by following the change in absorbance at 405 nm (formation of p-nitroanilide). The extinction coefficient for L- […]
The kinetic parameters (KM and Vmax) for aminopeptidase from barley seeds were determined by using the Lineweaver–Burk (L-B) weighted regression method. The measured KM value was 0.21 mM ± 0.14 and was used to determine the inhibitory constants of the all evaluated inhibitors.
Table S7. The kinetic parameters characterizing activity of the isolated aminopeptidase from barley seeds. […]
Lineweaver-Burk regression
Plot S1. Graphical determination of the KM value for aminopeptidase from barley seeds by using Lineweaver-Burk: unweighted (blue line) and weighted (red line) regression method.

As to `NC(c1ccc(C(F)(F)F)cc1)P(=O)(O)O` (centres unmarked) [Compound 10], the results for the Ki in experiment [1] and in experiment [2] were 56.3 ± 2.2 µM and 686 ± 70 µM, respectively.

In the case of `NC(c1c(F)c(F)c(F)c(F)c1F)P(=O)(O)O` (centres unmarked) [Compound 13], in experiment [1], the “inhibitory action” value is recorded as “practically no inhibitory action” and the “pAPN Ki + SD” value is “in ^2”. Further, in experiment [2], the “inhibitory action” value was “practically no inhibitory action” and the “Barley Seed AP Ki + SD” value was “in ^2”.

Turning to `NC(c1cc(F)cc(C(F)(F)F)c1)P(=O)(O)O` (centres unmarked) [Compound 11], the Ki in experiment [1] was 164 ± 7.7 µM; in experiment [2], 1030 ± 73 µM.

Consider `NC(c1ccc(C(F)(F)F)cc1F)P(=O)(O)O` (centres unmarked) [Compound 12], for which, in experiment [1], the “inhibitory action” value was “practically no inhibitory action” and the “pAPN Ki + SD” value was “in ^2”. In experiment [2], the “inhibitory action” value is listed as “practically no inhibitory action” and the “Barley Seed AP Ki + SD” value is on record as “in ^2”.

Regarding `NC(c1ccc(F)cc1F)P(=O)(O)O` (centres unmarked) [Compound 4], the Ki in experiment [2] was 1420 ± 83 µM.

As to `NC(c1ccc(Cl)cc1F)P(=O)(O)O` (centres unmarked) [Compound 9], the Ki in experiment [2] worked out at 818 ± 43 µM.

Regarding `NC(c1ccc(F)c(Cl)c1)P(=O)(O)O` (centres unmarked) [Compound 7], in experiment [2], the Ki worked out at 62.1 ± 2.3 µM.

`NC(c1ccc(F)c(F)c1)P(=O)(O)O` (centres unmarked) [Compound 5]: the Ki in experiment [2] came to 549 ± 54 µM.

For `NC(c1ccc(Cl)c(F)c1)P(=O)(O)O` (centres unmarked) [Compound 8], the Ki in experiment [2] came out at 103 ± 10 µM.

In the case of `NC(c1ccc(F)cc1)P(=O)(O)O` (centres unmarked) [Compound 3], the Ki in experiment [2] amounted to 1100 ± 57 µM.

With `NC(c1c(F)cc(F)cc1F)P(=O)(O)O` (centres unmarked) [Compound 6], the “pAPN Ki + SD” value in experiment [1] is “in ^2”. The “Barley Seed AP Ki + SD” value in experiment [2] is “in ^2”.

For the compound `NC(c1ccccc1F)P(=O)(O)O` (centres unmarked) [Compound 1], the Ki in experiment [1] came to 232 ± 22 µM.

`CC(C)C[C@H](N)C(=O)Nc1ccc([N+](=O)[O-])cc1` [L-Leu-pNa, L-leucine-p-nitroanilidine, reference compound]: the Km (commonly the substrate concentration at which the rate is half of its maximum) turned out to be 520 µM in experiment [1] (substrate of pAPN) and 210 µM in experiment [2] (substrate of barley seed aminopeptidase, Lineweaver-Burk weighted regression, 37 °C, pH 8.0).

For the compound `NC(c1cccc(F)c1)P(=O)(O)O` (centres unmarked) [Compound 2], the Ki in experiment [1] worked out at 122 ± 10 µM; in experiment [2], 311 ± 27 µM.

As to `NC(c1ccc(O)cc1F)P(=O)(O)O` (centres unmarked) [Compound 14], the “Barley Seed AP Ki + SD” value in experiment [2] was “in ^2”.

These data come from article PMC6789573, “Phosphonic Acid Analogues of Phenylglycine as Inhibitors of Aminopeptidases: Comparison of Porcine Aminopeptidase N, Bovine Leucine Aminopeptidase, Tomato Acidic Leucine Aminopeptidase and Aminopeptidase from Barley Seeds” (Pharmaceuticals, 2019).
